Each structure is given as a SMILES string. Some results are limits rather than exact numbers.

The term IC50 denotes the point on the concentration scale where inhibition reaches its midpoint.

The target of data set [1] is Receptor-type tyrosine-protein kinase FLT3 (Homo sapiens, UniProt P36888, D835Y). Nature of the data set: Inhibition of recombinant FLT3 D835Y mutant (unknown origin) by TR-FRET assay. In general terms: Time-resolved FRET reads energy transfer from a long-lived donor to a nearby acceptor.
Data set [2] deals with T1, Receptor-type tyrosine-protein kinase FLT3 (Homo sapiens, UniProt P36888).
T1 sequence (P36888 whole entry): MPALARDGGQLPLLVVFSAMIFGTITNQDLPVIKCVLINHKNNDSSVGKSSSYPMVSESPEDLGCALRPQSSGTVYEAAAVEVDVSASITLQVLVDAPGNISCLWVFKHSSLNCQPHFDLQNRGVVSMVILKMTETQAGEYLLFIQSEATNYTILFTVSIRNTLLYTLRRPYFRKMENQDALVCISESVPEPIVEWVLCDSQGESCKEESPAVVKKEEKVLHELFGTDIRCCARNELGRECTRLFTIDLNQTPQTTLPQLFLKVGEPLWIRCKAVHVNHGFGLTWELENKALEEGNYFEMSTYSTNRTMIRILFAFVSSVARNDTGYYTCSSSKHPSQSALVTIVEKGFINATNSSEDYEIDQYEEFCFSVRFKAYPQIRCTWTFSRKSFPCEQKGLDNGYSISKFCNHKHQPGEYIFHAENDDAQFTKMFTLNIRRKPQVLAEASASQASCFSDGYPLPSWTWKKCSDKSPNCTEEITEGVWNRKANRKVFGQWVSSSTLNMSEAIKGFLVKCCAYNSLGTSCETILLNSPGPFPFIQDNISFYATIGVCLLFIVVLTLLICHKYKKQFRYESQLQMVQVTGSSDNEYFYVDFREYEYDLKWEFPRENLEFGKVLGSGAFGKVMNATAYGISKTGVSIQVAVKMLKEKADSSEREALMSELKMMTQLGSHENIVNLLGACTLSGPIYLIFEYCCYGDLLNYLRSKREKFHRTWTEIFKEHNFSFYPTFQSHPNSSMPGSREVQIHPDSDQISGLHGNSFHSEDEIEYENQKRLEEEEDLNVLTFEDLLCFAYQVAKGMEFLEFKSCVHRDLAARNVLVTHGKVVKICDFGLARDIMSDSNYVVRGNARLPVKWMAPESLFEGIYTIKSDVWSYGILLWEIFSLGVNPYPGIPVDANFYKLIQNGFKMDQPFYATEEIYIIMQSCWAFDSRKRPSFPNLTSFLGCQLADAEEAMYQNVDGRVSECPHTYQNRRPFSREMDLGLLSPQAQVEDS
Nature of the data set: Inhibition of recombinant FLT3 (unknown origin) by TR-FRET assay.

Data set [3] has as its system MV4-11. Nature of the data set: Antiproliferative activity against human MV4-11 cells after 72 hrs by luminescent cell viability assay. Format: functional, cell-based. The conditions noted are these: MV4-11, 72 h.
The target of data set [4] is Receptor-type tyrosine-protein kinase FLT3 (Homo sapiens, UniProt P36888, ITD). Nature of the data set: Inhibition of recombinant FLT3 ITD mutant (unknown origin) by RBC kinase assay.
The nature of data set [5]: Antiproliferative activity against human HL60 cells assessed as growth inhibition at 5 uM after 72 hrs by luminescent cell viability assay. Conditions: HL-60, 72 h, read-out: GI. The data set is classed as functional.
A further data set deals with K562. The data set can be described thus: Antiproliferative activity against human K562 cells assessed as growth inhibition at 5 uM after 72 hrs by luminescent cell viability assay. The data set is classed as functional. The conditions noted are these: K562, 72 h, read-out: GI.
Data set [6] can be described thus: Antiproliferative activity against human THP1 cells after 72 hrs by luminescent cell viability assay. The data set is classed as functional, cell-based. Conditions: THP-1, 72 h.
The nature of data set [7]: Antiproliferative activity against human HEK293T cells assessed as growth inhibition at 5 uM after 72 hrs by luminescent cell viability assay. Format: cell-based, HEK-293T. Conditions: read-out: GI.
A short description of data set [8]: Antiproliferative activity against human THP1 cells assessed as growth inhibition at 5 uM after 72 hrs by luminescent cell viability assay. Format: functional. The conditions noted are these: THP-1, 72 h, read-out: GI.
Data set [9] has as its system MV4-11. Nature of the data set: Antiproliferative activity against human MV4-11 cells assessed as growth inhibition at 5 uM after 72 hrs by luminescent cell viability assay. Format: functional. Conditions: MV4-11, 72 h, read-out: GI.

Turning to `C/C=C/C(=O)NC/C=C/c1cc(OCCc2ccc(F)cc2)cc(O)c1C(=O)OC(C)C`, the IC50 was not below 30 µM in data set [1], not below 30 µM in data set [2], more than 10 µM with MV4-11 [3] and not below 30 µM in data set [4].
Turning to `COc1cc(O)c(C(=O)OC(C)C)c(/C=C/CNC(C)=O)c1`, the IC50 was 14.2 µM in data set [1], more than 50 µM in data set [2] and more than 10 µM in the data set with MV4-11 [3].
Regarding `COc1cc(O)c2c(c1)CCC[C@H](O)[C@H](O)C(=O)/C=C\C[C@H](C)OC2=O`, the inhibition of growth at 5 µM stood at 86% in data set [5], 69.7% in the data set with K562, 81.5% in data set [8] and 99.7% with MV4-11 [9]. Besides, the IC50 in data set [1] turned out to be 0.011 µM; in [2], 0.062 µM; in data set [6] it was 1.18 µM; with MV4-11 [3], 0.01 µM; in data set [4] it was 0.036 µM. The inhibition at 72 h, 5 µM in data set [7] was found to be 74.6%.
On to `C=CS(=O)(=O)NC/C=C/c1cc(OC)cc(O)c1C(=O)OCc1ccc(F)cc1`, for which the inhibition of growth at 5 µM is 10.9% in data set [5], 52% in the data set on K562, 41.7% in [8] and 70.5% with MV4-11 [9]. Moreover, the IC50 in data set [1] was not below 30 µM; in data set [2], not below 30 µM; in [6] it was 6.55 µM; with MV4-11 [3], 5.14 µM; in data set [4], not below 30 µM. For the same compound, in data set [7], the inhibition at 72 h, 5 µM was 0%.
As for `C=CS(=O)(=O)NC/C=C/c1cc(OC)cc(O)c1C(=O)OCC1CCCCC1`, the inhibition of growth at 5 µM in [5] was 7.5%; in the data set with K562, 27.4%; in data set [8], 26.5%; in the data set on MV4-11 [9], 56.4%. The IC50 in data set [1] is not below 30 µM; in [2], not below 30 µM; in [6], 7.88 µM; in the data set with MV4-11 [3], 5.86 µM; in data set [4], not below 30 µM. Further, the inhibition at 72 h, 5 µM in [7] came out at 31.2%.
On to `C=CS(=O)(=O)NC/C=C/c1cc(OC)cc(O)c1C(=O)OCC(C)c1ccccc1` (stereo not drawn), for which the inhibition of growth at 5 µM in [5] was found to be 9.5%; in the data set with K562, 16.7%; in [8] it was 5.6%; in the data set on MV4-11 [9], 9.6%. The IC50 in data set [1] is not below 30 µM; in data set [2], not below 30 µM; in data set [6] it was more than 10 µM; in the data set with MV4-11 [3] it was 7.73 µM; in data set [4] it was not below 30 µM. For the same compound, in data set [7], the inhibition at 72 h, 5 µM was 22.5%.
With `C=CS(=O)(=O)NC/C=C/c1cc(OC)cc(O)c1C(=O)OCc1ccc(Br)cc1`, the inhibition of growth at 5 µM was found to be 8.1% in data set [5], 38.4% in the data set on K562, 31.2% in data set [8] and 61% with MV4-11 [9]. The IC50 in [1] is not below 30 µM; in data set [2], not below 30 µM; in data set [6], 6.24 µM; in the data set with MV4-11 [3] it was 6.06 µM; in [4], not below 30 µM. In data set [7], the inhibition at 72 h, 5 µM stood at 0%.
As for `C/C=C/C(=O)NC/C=C/c1cc(OC)cc(O)c1C(=O)OC(C)C`, the IC50 was not below 30 µM in data set [1], not below 30 µM in data set [2], more than 10 µM in the data set with MV4-11 [3] and not below 30 µM in data set [4].
With `C=CC(=O)NC/C=C/c1cc(OC)cc(O)c1C(=O)O[C@@H](C)C(C)C`, the IC50 in data set [1] is not below 30 µM; in data set [2] it was not below 30 µM; in the data set with MV4-11 [3], more than 10 µM; in data set [4] it was not below 30 µM.
For `C=CC(=O)NC/C=C/c1cc(OC)cc(O)c1C(=O)OC(C)C`, the half-inhibitory concentration (IC50) in data set [1] is not below 30 µM; in data set [2], not below 30 µM; in the data set on MV4-11 [3] it was more than 10 µM; in data set [4] it was not below 30 µM.
Take `CCN(CC)C/C=C/C(=O)NC/C=C/c1cc(OC)cc(O)c1C(=O)O[C@@H](C)C(C)C`: the IC50 in [1] was not below 30 µM; in [2], not below 30 µM; in the data set with MV4-11 [3], more than 10 µM; in [4] it was not below 30 µM.

Source of the values: ChEMBL document CHEMBL3352474, “Design, synthesis and biological evaluation of FLT3 covalent inhibitors with a resorcylic acid core” (Bioorg Med Chem, 2014).
